Measurements reported in patent US20230286960A1, “ALLOSTERIC CHROMENONE INHIBITORS OF PHOSPHOINOSITIDE 3-KINASE (PI3K) FOR THE TREATMENT OF DISEASE” (Petra Pharma Corporation, priority 2020, published 2023).

Experiments:
[1] = biological target: human full length PIK3CA wild-type (p110α/p85α) (Homo sapiens (Human), UniProt P42336); experiment: PI3K-alpha kinase (PIK3CA) activity, wild-type, Transcreener ADP2 FI assay; settings: PI3K-α (PIK3CA) biochemical
Experimental: (§1) PI3K-Alpha Kinase (PIK3CA) Activity, Wild-Type and H1047R Mutant and Determining IC50 Values for Inhibitors
(§2) Recombinant, catalytically active human full length PIK3KA Wild-type and H1047R mutant were purchased as 1:1 complex of N-terminal 6× his tagged p110 ? (catalytic) and untagged p85 ? (regulatory subunit) from EMD Millipore Sigma (cat. no. 14-602M and 14-792M, respectively). The enzyme stocks were diluted to 5× stocks in buffer (20 mM HEPES pH 7.4, 100 mM NaCl, 0.5 mM EGTA, 0.01% triton-x-100) just before use. PIP2diC8 (Avanti Polar Lipids Inc., cat. no. 850185) or phosphoinositol-4,5-bisphosphate with phosphoserine (PIP2:PS) membrane (Thermo Fisher Scientific, cat. no. PV5100) was used as lipid substrates. PIP2diC8 lyophilized powder and PIP2:PS (1:19) membrane stock (1 mM in PIP2) were separately dissolved in milliQ water to a concentration of 250 uM and stored in −20° C. 10 mM stocks of compounds were serially diluted (3×) in neat DMSO and stored in a dessicator at room temperature. 5× compound stocks in 25% DMSO were prepared fresh from neat DMSO stocks.
(§3) Wild-type (WT) and H1047R mutant protein, along with buffer components (except ATP), were incubated with or without compound at 27° C. for 1 h. After incubation, the reaction was initiated by the addition of 5 uL of 125 uM ATP. A typical assay mixture (25 uL) comprised 40 mM HEPES buffer, pH 7.4, 25 mM MgCl2, 0.01% v/v triton-X-100, 5% v/v DMSO, 20 mM NaCl, 1-5 nM wt or H1047R, 25 uM ATP, and 50 uM PIP2diC8 or PIP2 in membrane. The reaction was allowed to proceed until about […] (2.5 uM ADP) after which time, 10 uL of reaction mixture was quenched with 25 uL of transcreener reagent (Transcreener ADP2 FI assay kit, BellBrook labs, Cat. No. 3013). The contents were incubated at rt for 1 h and fluorescence was measured using a plate reader (Paradigm, Molecular Devices). The same assay was also run at pH 6.0 or 6.4 using MOPS buffer (Fisher BioReagents, CAS 1132-61-2). A calibration curve was generated under identical buffer conditions with varying ADP amounts. Using that, the observed fluorescence was converted to uM ADP. A plot between [ADP] and log[I] yielded the dose-response curves that enabled the calculation of IC50s.

[2] = biological target: human full length PIK3CA H1047R mutant (p110α/p85α) (Homo sapiens (Human), UniProt P42336, H1047R); experiment: PI3K-alpha kinase (PIK3CA) activity, H1047R mutant, Transcreener ADP2 FI assay; settings: PI3K-α (PIK3CA) biochemical
Sequence of human full length PIK3CA H1047R mutant (p110α/p85α) (P42336 whole entry H1047R): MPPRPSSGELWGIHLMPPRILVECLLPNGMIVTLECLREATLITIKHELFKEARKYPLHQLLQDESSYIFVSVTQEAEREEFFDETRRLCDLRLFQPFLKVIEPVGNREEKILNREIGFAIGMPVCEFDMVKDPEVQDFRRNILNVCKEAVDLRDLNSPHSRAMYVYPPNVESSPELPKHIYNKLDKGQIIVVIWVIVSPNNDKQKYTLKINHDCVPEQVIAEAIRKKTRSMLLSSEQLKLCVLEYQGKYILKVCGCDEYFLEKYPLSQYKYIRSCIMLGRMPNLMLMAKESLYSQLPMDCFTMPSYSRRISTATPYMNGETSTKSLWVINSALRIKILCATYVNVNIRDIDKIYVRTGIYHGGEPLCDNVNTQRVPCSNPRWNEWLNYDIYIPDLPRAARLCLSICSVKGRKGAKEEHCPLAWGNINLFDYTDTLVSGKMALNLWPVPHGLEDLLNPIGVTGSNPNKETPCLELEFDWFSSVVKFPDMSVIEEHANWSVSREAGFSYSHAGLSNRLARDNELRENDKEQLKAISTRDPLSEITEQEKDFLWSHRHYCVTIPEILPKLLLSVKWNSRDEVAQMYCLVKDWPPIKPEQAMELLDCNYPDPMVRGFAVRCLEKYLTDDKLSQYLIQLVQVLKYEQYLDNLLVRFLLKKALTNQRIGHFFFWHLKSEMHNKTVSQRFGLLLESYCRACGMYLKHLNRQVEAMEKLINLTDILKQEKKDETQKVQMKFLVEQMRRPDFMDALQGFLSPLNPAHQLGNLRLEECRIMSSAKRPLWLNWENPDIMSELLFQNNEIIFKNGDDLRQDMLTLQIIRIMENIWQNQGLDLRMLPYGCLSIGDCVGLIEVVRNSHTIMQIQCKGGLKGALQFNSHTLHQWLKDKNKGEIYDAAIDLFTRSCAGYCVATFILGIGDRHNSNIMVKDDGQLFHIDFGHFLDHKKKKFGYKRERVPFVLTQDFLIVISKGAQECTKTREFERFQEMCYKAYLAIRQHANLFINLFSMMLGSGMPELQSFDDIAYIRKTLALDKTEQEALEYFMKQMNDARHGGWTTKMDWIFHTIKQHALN
Sequence of human full length PIK3CA H1047R mutant (p110α/p85α) (P27986 whole entry partner): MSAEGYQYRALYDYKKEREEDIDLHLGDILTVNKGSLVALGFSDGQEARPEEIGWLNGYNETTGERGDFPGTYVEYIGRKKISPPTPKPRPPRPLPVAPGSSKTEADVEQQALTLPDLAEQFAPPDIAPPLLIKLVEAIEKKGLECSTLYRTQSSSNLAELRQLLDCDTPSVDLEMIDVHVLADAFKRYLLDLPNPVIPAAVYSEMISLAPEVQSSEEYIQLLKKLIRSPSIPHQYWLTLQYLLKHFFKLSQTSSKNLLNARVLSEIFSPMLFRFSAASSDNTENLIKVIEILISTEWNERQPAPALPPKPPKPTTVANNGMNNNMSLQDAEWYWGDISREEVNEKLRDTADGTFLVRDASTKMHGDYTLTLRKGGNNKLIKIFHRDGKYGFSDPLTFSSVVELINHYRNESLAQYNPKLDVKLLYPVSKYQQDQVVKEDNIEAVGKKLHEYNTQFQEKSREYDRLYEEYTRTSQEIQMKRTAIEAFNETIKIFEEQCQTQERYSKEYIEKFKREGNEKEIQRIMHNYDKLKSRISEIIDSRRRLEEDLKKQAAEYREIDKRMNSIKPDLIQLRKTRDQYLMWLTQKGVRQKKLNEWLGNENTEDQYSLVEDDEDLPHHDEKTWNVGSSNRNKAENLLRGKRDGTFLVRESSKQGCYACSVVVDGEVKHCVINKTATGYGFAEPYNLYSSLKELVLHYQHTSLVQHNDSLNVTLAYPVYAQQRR
Experimental: as §1, §2, §3

Sequence of human full length PIK3CA wild-type (p110α/p85α) (P42336 whole entry): as the sequence (P42336 whole entry H1047R) above, with R1047H counted along it
Sequence of human full length PIK3CA wild-type (p110α/p85α) (P27986 whole entry partner): as the sequence (P27986 whole entry partner) above

Cc1cc(C(C)Nc2ccccc2C(=O)O)c2oc(N3CC(Cl)C3)cc(=O)c2c1 (stereo not shown) [Example 63, 2-[1-[2-(3-Chloroazetidin-1-yl)-6-methyl-4-oxo-chromen-8-yl]ethylamino]benzoic acid]
IC50 [1]: > 10 µM
IC50 [2]: < 500 nM

Cc1cc([C@@H](C)Nc2ccc(Cl)nc2C(=O)O)c2oc(N3CCC(F)(F)CC3)c(C)c(=O)c2c1 [Example 310, 6-Chloro-3-[[(1R)-1-[2-(4,4-difluoro-1-piperidyl)-3,6-dimethyl-4-oxo-chromen-8-yl]ethyl]amino]pyridine-2-carboxylic acid]
IC50 [1]: < 0.5 µM
IC50 [2]: < 500 nM

Cc1cc([C@@H](C)Nc2ccc(Cl)nc2C(=O)O)c2oc(N3CCC(C)(C)CC3)cc(=O)c2c1 [Example 256, 6-Chloro-3-[[(1R)-1-[2-(4,4-dimethyl-1-piperidyl)-6-methyl-4-oxo-chromen-8-yl]lethyl]amino]pyridine-2-carboxylic acid]
IC50 [1]: < 0.5 µM
IC50 [2]: < 500 nM

Cc1cc(C(C)Nc2ccc(C#N)cc2C(=O)O)c2oc(N3CCC(C)(C)CC3)cc(=O)c2c1 (stereo not shown) [Example 6, 5-Cyano-2-[1-[2-(4,4-dimethyl-1-piperidyl)-6-methyl-4-oxo-chromen-8-yl]ethylamino]benzoic acid]
IC50 [1]: > 10 µM
IC50 [2]: < 500 nM

Cc1cc(C(C)Nc2ccccc2C(=O)O)c2oc(NCC(C)C)cc(=O)c2c1 (stereo not shown) [Example 77, 2-[1-[2-(Isobutylamino)-6-methyl-4-oxo-chromen-8-yl]ethylamino]benzoic acid]
IC50 [1]: > 10 µM
IC50 [2]: < 500 nM

Cc1cc([C@@H](C)Nc2ccc(Cl)nc2C(=O)O)c2oc(N3Cc4ccccc4C3)cc(=O)c2c1 [Example 300, 6-Chloro-3-[[(1R)-1-(2-isoindolin-2-yl-6-methyl-4-oxo-chromen-8-yl)ethyl]amino]pyridine-2-carboxylic acid]
IC50 [1]: < 0.5 µM
IC50 [2]: < 500 nM

Cc1cc([C@@H](C)Nc2ccc(Cl)nc2C(=O)O)c2oc(N3CCCCC3)c(C)c(=O)c2c1 [Example 309, 6-Chloro-3-[[(1R)-1-[3,6-dimethyl-4-oxo-2-(1-piperidyl)chromen-8-yl]ethyl]amino]pyridine-2-carboxylic acid]
IC50 [1]: < 0.5 µM
IC50 [2]: < 500 nM

Cc1cc([C@@H](C)Nc2ccc(Cl)nc2C(=O)O)c2oc(N3CCC4(CC3)CC4)c(C)c(=O)c2c1 [Example 306, 3-[[(1R)-1-[2-(6-Azaspiro[2.5]octan-6-yl)-3,6-dimethyl-4-oxo-chromen-8-yl]ethyl]amino]-6-chloro-pyridine-2-carboxylic acid]
IC50 [1]: < 0.5 µM
IC50 [2]: < 500 nM

Cc1cc(C(C)Nc2ccc(Cl)nc2C(=O)O)c2oc(N3CCC4(CC3)CC4)cc(=O)c2c1 (stereo not shown) [Example 298, 3-[1-[2-(6-Azaspiro[2.5]octan-6-yl)-6-methyl-4-oxo-chromen-8-yl]ethylamino]-6-chloro-pyridine-2-carboxylic acid]
IC50 [1]: < 0.5 µM
IC50 [2]: < 500 nM

CCNc1cc(=O)c2cc(C)cc(C(C)Nc3ccccc3C(=O)O)c2o1 (stereo not shown) [Example 126, 2-[1-[2-(Ethylamino)-6-methyl-4-oxo-chromen-8-yl]ethylamino]benzoic acid]
IC50 [1]: > 10 µM

Cc1cc(C(C)Nc2ccsc2C(=O)O)c2oc(N3CCC(C)(C)CC3)cc(=O)c2c1 (stereo not shown) [Example 39, 3-[1-[2-(4,4-Dimethyl-1-piperidyl)-6-methyl-4-oxo-chromen-8-yl]ethylamino]thiophene-2-carboxylic acid]
IC50 [1]: > 10 µM

CC(Nc1ccc(Cl)nc1C(=O)O)c1cc(F)cc2c(=O)cc(N3Cc4ccccc4C3)oc12 (stereo not shown) [Example 400, 6-Chloro-3-[1-(6-fluoro-2-isoindolin-2-yl-4-oxo-chromen-8-yl)ethylamino]pyridine-2-carboxylic acid 2,2,2-trifluoroacetic acid]
IC50 [1]: < 0.5 µM
IC50 [2]: < 500 nM

Cc1cc(C(C)Nc2ccc(Cl)nc2C(=O)O)c2oc(N3CCCCC3)c(C)c(=O)c2c1 (stereo not shown) [Example 305, 6-Chloro-3-[1-[3,6-dimethyl-4-oxo-2-(1-piperidyl)chromen-8-yl]ethylamino]pyridine-2-carboxylic acid]
IC50 [1]: < 0.5 µM
IC50 [2]: < 500 nM

Cc1cc(C(C)Nc2cc(F)ccc2[N+](=O)[O-])c2oc(N3CCC(C)(C)CC3)cc(=O)c2c1 (stereo not shown) [Example 8, 2-(4,4-Dimethyl-1-piperidyl)-8-[1-(5-fluoro-2-nitro-anilino)ethyl]-6-methyl-chromen-4-one]
IC50 [1]: > 10 µM
IC50 [2]: > 10000 nM

Cc1cc(C(C)Nc2c(Cl)cccc2C(=O)O)c2oc(N3CCC(C)(C)CC3)cc(=O)c2c1 (stereo not shown) [Example 11, 3-Chloro-2-[1-[2-(4,4-dimethyl-1-piperidyl)-6-methyl-4-oxo-chromen-8-yl]ethylamino]benzoic acid]
IC50 [1]: > 10 µM
IC50 [2]: > 10000 nM

Cc1cc([C@@H](C)Nc2ccccc2C(=O)O)c2oc(N3CC[C@H](c4ccccc4)C3)c(C)c(=O)c2c1 [Example 286, 2-[[(1R)-1-[3,6-dimethyl-4-oxo-2-[(3R)-3-phenylpyrrolidin-1-yl]chromen-8-yl]ethyl]amino]benzoic acid]
IC50 [1]: < 0.5 µM
IC50 [2]: < 500 nM

Cc1cc([C@@H](C)Nc2ccc(Cl)nc2C(=O)O)c2oc(N3Cc4ccc(F)cc4C3)c(C)c(=O)c2c1 [Example 308, 6-Chloro-3-[[(1R)-1-[2-(5-fluoroisoindolin-2-yl)-3,6-dimethyl-4-oxo-chromen-8-yl]ethyl]amino]pyridine-2-carboxylic acid]
IC50 [1]: < 0.5 µM
IC50 [2]: < 500 nM

Cc1cc(C(C)N(C)c2ccccc2C(=O)O)c2oc(N3CCC(C)(C)CC3)cc(=O)c2c1 (stereo not shown) [Example 5, 2-[1-[2-(4,4-Dimethyl-1-piperidyl)-6-methyl-4-oxo-chromen-8-yl]ethyl-methyl-amino]benzoic acid]
IC50 [1]: > 10 µM
IC50 [2]: > 10000 nM

Cc1cc(C(C)Nc2ccccc2C(=O)O)c2oc(N3CCS(=O)(=O)CC3)cc(=O)c2c1 (stereo not shown) [Example 117, 2-[1-[2-(1,1-Dioxo-1,4-thiazinan-4-yl)-6-methyl-4-oxo-chromen-8-yl]ethylamino]benzoic acid]
IC50 [1]: > 10 µM

Cc1cc(C(C)Nc2ccccc2C(=O)O)c2oc(NC34CC5CC(CC(CO)(C5)C3)C4)cc(=O)c2c1 (stereo not shown) [Example 169]
IC50 [1]: > 10 µM

Cc1cc(C(C)Nc2cccc(F)c2C(=O)O)c2oc(N3Cc4ccc(F)cc4C3)cc(=O)c2c1 (stereo not shown) [Example 238, 2-Fluoro-6-[1-[2-(5-fluoroisoindolin-2-yl)-6-methyl-4-oxo-chromen-8-yl]ethylamino]benzoic acid]
IC50 [1]: > 10 µM

COc1cc(C(=O)O)c(NC(C)c2cc(C)cc3c(=O)cc(N4CCC(C)(C)CC4)oc23)cc1F (stereo not shown) [Example 1, 2-[1-[2-(4,4-Dimethyl-1-piperidyl)-6-methyl-4-oxo-chromen-8-yl]ethylamino]-4-fluoro-5-methoxy-benzoic acid]
IC50 [1]: > 10 µM

COc1ccc(NC(C)c2cc(C)cc3c(=O)cc(N4Cc5ccccc5C4)oc23)c(C(=O)O)n1 (stereo not shown) [Example 237, 3-[1-(2-Isoindolin-2-yl-6-methyl-4-oxo-chromen-8-yl)ethylamino]-6-methoxy-pyridine-2-carboxylic acid]
IC50 [1]: > 10 µM

Cc1cc(C(C)Nc2ccccc2C(=O)O)c2oc(N3CCCC4(CNC(=O)C4)C3)cc(=O)c2c1 (stereo not shown) [Example 61, 2-[1-[6-Methyl-4-oxo-2-(3-oxo-2,7-diazaspiro[4.5]decan-7-yl)chromen-8-yl]ethylamino]benzoic acid]
IC50 [1]: > 10 µM
